Data as given in patent US20230333087A1, “METHODS FOR MONITORING PATIENT RESPONSE TO TREATMENT OF RETINAL OXIDATIVE DISEASES” (BioJiva LLC, priority 2022, published 2023).

What was measured:
[1] = test system: 4-HNE and 4-HHE formation; settings: present in lipid bilayers; cited from earlier work
[2] = test system: LPO and cell death; settings: FRDA, INAD, PSP; cited from earlier work
[3] = clinical trials; cited from earlier work
[4] = test system: human RPE cell line ARPE-19; settings: high-intensity light exposure; cited from earlier work
[5] = test system: iron-induced retinal autofluorescence and degeneration; experiment: Iron-induced retinal autofluorescence and degeneration, cSLO and OCT imaging 1 week after intravitreal iron; format: in vivo, C57BL/6J mice; settings: DHA diet versus previous study with regular chow without DHA (LabDiet 5001)
Procedure: To evaluate the protective effect of 0.25% D-DHA diet, confocal scanning laser ophthalmoscopy (cSLO) and optical coherence tomography (OCT) were employed for in vivo imaging at 1 week after injections. For the cSLO imaging, both blue autofluorescence (BAF) and near-infra autofluorescence (IRAF) were performed.
Adult male wild-type C57BL/6J mice (Stock No.000664, Jackson Labs, Bar Harbor, ME, USA) were housed in standard conditions under cyclic light (12 h:12 h light-dark cycle). Mice had ad libitum access to water and food. Beginning at 2 mo of age, mice were placed on the AIN93G diet described above, supplemented with 0.25% D-DHA or DHA (control diet) for 1 week, 2 weeks, 3 weeks, or 4 weeks prior to the intravitreal injection. Mice were given an intravitreal injection of 1 µl 0.5 mM ferric ammonium citrate diluted in 0.9% NaCl (saline) (MP Biomedicals LLC, Santa Ana, CA) or
1 µl of saline as control. Intravitreal injections were performed as previously described ^54. Mice were continued on respective diet until their final evaluation. All housing and procedures were performed according to the NIH Guide for the Care and Use of Experimental Animals and approved by the University of Pennsylvania Animal Care and Use Committee.
Mice were given general anesthesia and placed on a platform. Pupils were dilated with 1% tropicamide saline solution (Akorn, Inc., Lake Forest, IL). Optical coherence tomography (OCT) imaging was performed for visualization of the retinal structure by using a Bioptigen
Envisu (R2200, Bioptigen Inc., Durham, NC, USA) coupled to a broadband LED light source (T870-HP, Superlum Diodes, Ltd, Ireland). Confocal scanning laser ophthalmoscopy (cSLO) (Spectralis HRA, Heidelberg Engineering, Franklin, MA, USA) was used for visualization of retinal AF using BluePeak™ or simply blue AF (488 nm excitation) and near-infrared AF (787 nm excitation) imaging modes.

Compound: [2H]C([2H])(/C=C\CCCCC)/C=C\CCCCCCCC(=O)O [D2-linoleic acid]
- 4-HNE and 4-HHE formation [1]: downregulated not just 4-HNE but also 4-HHE formation

Compound: [2H]C([2H])(/C=C\CCCCC)/C=C\CCCCCCCC(=O)OCC [RT001, 11,11-D2-Lin]
- LPO and cell death [2]: inhibited LPO and rescued cell death
- safety and tolerability [3]: notable safety and tolerability

Compound: docosahexaenoic acid [DHA, reference compound]
- oxidative stress and LPO [4]: increased oxidative stress and LPO
- severity of IVT iron induced damage [5]: less severe
